Laboratory results published in patent publication US10065957B2, “Beta-lactamase inhibitors” (Novartis AG, priority 2016, dated 2018).

Experiments:
Type in all cases: cell-based
[1] = system: E. coli (OXA-18); experiment: microbe, parasite or virus in culture
Description: (§1) MICs were determined by the broth microdilution method in accordance with Clinical and Laboratories Institute (CLSI) guidelines. In brief, fresh overnight bacterial cultures were suspended in sterile saline, and adjusted to a 0.5 McFarland turbidity standard. Bacterial suspensions were then diluted in cation adjusted Mueller-Hinton Broth (MHB II; BBL) to yield a final inoculum of approximately 5×10^5 colony-forming units (CFU)/mL. A master plate of antibiotics was prepared at a concentration equivalent to hundred-fold the highest desired final concentration in 100% dimethyl sulfoxide (DMSO). The master antibiotic plate was then diluted by serial twofold dilution with a multichannel pipette. The resulting dilution series of compounds were diluted 1:10 with sterile water or a solution of beta-lactamase inhibitor prepared at a concentration equivalent to eleven-fold the desired final concentration in deionized water leading to a 10% DMSO final concentration. A volume of 10 μL of the drug dilution series was transferred to 96-well assay plates. Assay plates were inoculated with 90 μL of bacterial suspensions and incubated at 35° C. for 20 hrs. The assay plates were read using a microtiter plate reader (Molecular Devices) at 600 nm as well as by visual observation with a reading mirror. The lowest concentration of the compound that prevented visible growth was recorded as the MIC.
(§2) Synergy or potentiation of beta-lactam antibiotics through inhibition of Q-lactamases was assessed against an isogenic panel of E. coli strains, each expressing a unique beta-lactamase, and against clinical strains.
(§3) Construction of E. coli isogenic strains, NB27273-CDY0105 (OXA-18) and NB27273-CDY0048 (TEM-10). […] The gene encoding OXA-18 was then digested with XhoI and EcoRI and inserted into this vector, from which the gene for GIM-1 had been removed with XhoI and EcoRI.
(§4) These final vectors for expression of OXA-18 and TEM-10 were transformed into BW25113 pspB to generate strains NB27273-CDY0105 (expressing OXA-18) and NB27273-CDY0048 (expressing TEM-10).

[2] = system: S. aureus NB01437 (BLA+); experiment: Potentiation of piperacillin in beta-lactam resistant clinical isolate
Description: as §1, with “MIC. Performance of the assay was monitored by testing aztreonam against laboratory quality control strains in accordance with guidelines of the CLSI.” for “MIC.”
as §2

[3] = system: K. pneumoniae NB29082 (KPC-2); experiment: as above
Description: as §1, with “MIC. Performance of the assay was monitored by testing aztreonam against laboratory quality control strains in accordance with guidelines of the CLSI.” for “MIC.”
as §2

[4] = system: Enterobacter cloacae NB25055 (CMY-2); experiment: as above
Description: as §1, with “MIC. Performance of the assay was monitored by testing aztreonam against laboratory quality control strains in accordance with guidelines of the CLSI.” for “MIC.”
as §2

[5] = system: E. coli (CTX-M-15); experiment: microbe, parasite or virus in culture; details: Escherichia coli, Pip alone, read-out: MIC of piperacillin
Description: as §1, §2
(§5) Strain NB27273 (BW25113 pspB::Km^r) was obtained from the Keio transposon insertion collection. The strain has the pspB gene replaced by a kanamycin resistance marker (BW25113 pspB::Km^r). This strain was cured of the transposon in pspB via FLP recombinase using published methodology. The resulting strain, BW25113 pspB, was used as a host for multicopy vectors expressing key beta-lactamases. Multicopy plasmids directing constitutive expression of beta-lactamases were established as follows: Synthetic, codon optimized genes encoding E. coli KPC-2, SHV-12 and CTX-M-15 beta-lactamases were made by DNA2.0 (Palo Alto, Calif.). Each of the synthetic fragments were designed to contain NotI and NcoI restriction sites at their termini, allowing ligation into a NotI/NcoI digested pET28a(+) derivative for protein expression. […] The codon optimized nucleotide sequences and relevant primer recognition information is shown below:
(§6) The PCR products were then digested with XhoI and EcoRI and ligated into similarly digested plasmid pAH63-pstS(BlaP). […] Therefore, expression of beta-lactamases from pAH63-pstS(BlaP) based constructs is constitutive and the signal sequence is provided to direct these proteins to the periplasm. […] These fragments were then digested with XbaI and EcoRI, and each was inserted into pBAD18-kan that had been digested with the same enzymes to generate multicopy vectors expressing KPC-2, SHV-12 and CTX-M-15, respectively. These vectors were transformed into BW25113 pspB to generate strains NB27273-CDY0033 (expressing KPC-2), NB27273-CDY0030 (expressing SHV-12), NB27273-CDY0034 (expressing CTX-M-15) and NB27273-CDY0036 (expressing AmpC). The pBAD18-kan vector also contains the TEM promoter region and signal sequence, (but lacks any intact beta-lactamase genes) and was transformed into BW25113 pspB using standard protocols to generate the control strain NB27273-CDY0026.

[6] = system: E. coli (SHV-12); experiment: microbe, parasite or virus in culture; details: Escherichia coli, Pip alone, read-out: MIC of piperacillin
Description: as §1, §2, §5, §6

[7] = system: E. coli (KPC-2); experiment: microbe, parasite or virus in culture; details: Escherichia coli, read-out: MIC of piperacillin
Description: as §1, §2, §5, §6

[8] = system: E. coli (AmpC); experiment: microbe, parasite or virus in culture; details: Escherichia coli, Pip alone, read-out: MIC of piperacillin
Description: as §1, with “MIC. Performance of the assay was monitored by testing aztreonam against laboratory quality control strains in accordance with guidelines of the CLSI.” for “MIC.”
as §2
The gene encoding AmpC was PCR amplified from the genome of strain P. aeruginosa PAO1 (NB52019) (GenBank ID U5R279) using primer pair E252 (gccCTCGAGggcgaggccccggcggatcgc) (SEQ ID NO: 17) and E253 (tgaGAATTCtcagcgcttcagcggcacct) (SEQ ID NO: 18).
The PCR products were then digested with XhoI and EcoRI and ligated into similarly digested plasmid pAH63-pstS(BlaP). Plasmid pAH63-pstS(BlaP) is a derivative of plasmid pAH63 (J Bacteriol: 183(21): 6384-6393) made by cloning the TEM-1 (bla) promoter and signal peptide encoding region from plasmid pBAD (J Bacteriol. 1995 July 177(14):4121-30) into plasmid pAH63. This fragment was PCR amplified from pBAD using primer pair E192 (ttcaCTGCAGtgaacgttgcgaagcaacggC) (SEQ ID NO:19) and E194 (TCGAggatcctcgagagcaaaaacaggaaggcaaaatgccg) (SEQ ID NO:20), digested with PstI and BamHI and inserted into similarly digested plasmid pAH63. Therefore, expression of beta-lactamases from pAH63-pstS(BlaP) based constructs is constitutive and the signal sequence is provided to direct these proteins to the periplasm. Plasmid pAH63 based vectors are used for insertion into the genome in single copy, however, to provide higher expression levels to allow more sensitive detection of the susceptibility of compounds to the expressed beta-lactamases, the expression inserts contained in these vectors were moved to the replicative multicopy vector pBAD-Kan (J Bacteriol. 1995 July 177(14):4121-30). To accomplish this, the inserts encompassing the beta-lactamase genes, with the associated TEM promoter and signal sequences, were PCR amplified from their corresponding vectors using primer E268 (ccgTCTAGAcggatggcctttttgcgtttc) (SEQ ID NO:21) and E202 (aatcGAATTCttactgaccattaacgcccaagc) (SEQ ID NO:22) for the KPC2 construct, E204 (aatcGAATTCttaacgctgccagtgctcaatc) (SEQ ID NO:23) for the SHV-12 construct and E203 (aatcGAATTCttacagaccgtcggtgacaatc) (SEQ ID NO:24) for the CTX-M-15 construct. These fragments were then digested with XbaI and EcoRI, and each was inserted into pBAD18-kan that had been digested with the same enzymes to generate multicopy vectors expressing KPC-2, SHV-12 and CTX-M-15, respectively. […]

[9] = system: E. coli (TEM-10); experiment: microbe, parasite or virus in culture; details: Escherichia coli, Pip alone, read-out: MIC of piperacillin
Description: as §1, §2, §3
From this template DNA, three fragments were generated by PCR using the following primer pairs;
This fragment was then digested with XbaI and EcoRI and inserted into pBAD-kan which was also cut with the same enzymes.
as §4

Compound	MIC of piperacillin with beta-lactamase inhibitor ([1]; Pip + BLI at 4 μg/mL)	Activity of piperacillin with beta-lactamase inhibitor ([2]; Pip + BLI at 4 μg/mL)	Activity of piperacillin with beta-lactamase inhibitor ([3]; Pip + BLI at 4 μg/mL)	Activity of piperacillin with beta-lactamase inhibitor ([4]; Pip + BLI at 4 μg/mL)	MIC [5]	MIC [6]	MIC [7]	MIC [8]	MIC ([1]; Escherichia coli, Pip alone, read-out: MIC of piperacillin)	Activity of piperacillin ([2]; piperacillin alone)	Activity of piperacillin ([3]; piperacillin alone)	Activity of piperacillin ([4]; piperacillin alone)	MIC [9]
C[C@]1(Cn2ccnn2)[C@H](C(=O)O)N2C(=O)C[C@H]2S1(=O)=O [Tazobactam]	8 µg/mL	1 µg/mL	>64 µg/mL	64 µg/mL									
CCN1CCN(C(=O)N[C@@H](C(=O)N[C@@H]2C(=O)N3C2SC(C)(C)[C@@H]3C(=O)O)c2ccccc2)C(=O)C1=O (stereo partly shown) [Piperacillin]					> 32 µg/mL	> 32 µg/mL	> 32 µg/mL	> 32 µg/mL	> 32 µg/mL	64 µg/mL	>64 µg/mL	>64 µg/mL	> 32 µg/mL
